{"source": "patent US8273780B2", "about": "“Polycyclic antagonists of lysophosphatidic acid receptors” (Amira Pharmaceuticals, Inc., priority 2009, dated 2012)", "key": {"Human LPA1": {"target": "T1, Human LPA1 (Homo sapiens, UniProt Q92633)", "T1 construct": "the full-length cDNA for human LPA1 was obtained by PCR of the reverse transcription reaction; expressed in transfected cells", "T1 sequence (Q92633 whole entry)": "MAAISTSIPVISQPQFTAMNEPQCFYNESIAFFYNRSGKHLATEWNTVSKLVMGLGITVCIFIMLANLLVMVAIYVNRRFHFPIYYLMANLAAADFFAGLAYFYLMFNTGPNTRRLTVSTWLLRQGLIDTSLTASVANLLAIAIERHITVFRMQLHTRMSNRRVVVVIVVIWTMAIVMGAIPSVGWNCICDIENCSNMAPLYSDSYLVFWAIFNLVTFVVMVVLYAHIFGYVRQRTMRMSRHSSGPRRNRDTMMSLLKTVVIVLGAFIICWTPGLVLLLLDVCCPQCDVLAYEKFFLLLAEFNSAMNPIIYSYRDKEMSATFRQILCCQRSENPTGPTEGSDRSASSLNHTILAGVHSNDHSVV", "test": "LPA1 calcium flux assay", "assay_type": "cell-based", "conditions": "CHO cells expressing human LPA1, 10 nM LPA; read-out: HLPA1 Ca Flux IC50", "outline": "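CHO cells stably expressing cloned human LPA1, serum-starved overnight, loaded 1 h at 37 °C with Calcium 4 dye in HBSS/20 mM Hepes/0.3% fatty-acid-free HSA. Compounds preincubated 30 min at room temp, then stimulated with 10 nM LPA; intracellular Ca2+ measured and IC50 derived from titration curves.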"}, "C57B1/6 mice": {"system": "C57B1/6 mice", "test": "Bleomycin-induced lung fibrosis model in mice", "assay_type": "in vivo", "conditions": "for total lung collagen: chronic setting (14 day bleomycin model)", "source_text": "Female C57B1/6 mice (Harlan, 25-30 g) are housed 4 per cage, given free access to food and water and allowed to acclimate for at least 7 days prior to test initiation. After the habituation phase, mice are lightly anesthetized with isoflurane (5% in 100% O2) and administered with bleomycin sulfate (0.01-5 U/kg, Henry Schein) via intratracheal instillation (Cuzzocrea S et al. Am J Physiol Lung Cell Mol Physiol. 2007 May; 292(5):L1095-104. Epub 2007 Jan. 12.). Mice are returned to their cages and monitored daily for the duration of the experiment. Test compound or vehicle is delivered po, ip or sc daily. The route and frequency of dosing is based on previously determined pharmacokinetic properties. All animals are sacrificed using inhaled isoflurane 3, 7, 14, 21 or 28 days after bleomycin instillation. Following sacrifice, mice are intubated with a 20 gauge angiocatheter attached to a 1 ml syringe. Lungs are lavaged with saline to obtain bronchoalveolar lavage fluid (BALF) and then removed and fixed in 10% neutral buffered formalin for subsequent histopathological analysis. BALF is centrifuged for 10 min at 800×g to pellet the cells and the cell supernatant removed and frozen at −80° C. for subsequent protein analysis using the DC protein assay kit (Biorad, Hercules, Calif.) and soluble collagen analysis using Sircol (Biocolor Ltd, UK). BALF is analyzed for concentrations of inflammatory, pro-fibrotic and tissue injury biomarkers including transforming growth factor β1, hyaluronic acid, tissue inhibitor of metalloproteinase-1, matrix matelloproteinase-7, connective tissue growth factor and lactate dehydrogenase activity, using commercially available ELISA. The cell pellet is re-suspended in PBS. Total cell counts are then obtained using a Hemavet hematology system (Drew Scientific, Wayne, Pa.) and differential cells counts are determined using Shandon cytospin (Thermo Scientific, Waltham, Mass.). Lung tissue is stained using hematoxylin and eosin (H&E) and trichrome and lung fibrosis is determined by semiquantitative histopathological scoring (Ashcroft T. et al. J. Clin. Path. 1988; 41; 4, 467-470) using light microscopy (10× magnification) and quantitative, computer-assisted densitometry of collagen in lung tissue sections using light microscopy. The data are plotted using Graphpad prism and statistical differences between groups determined."}, "C57BL/6 mice": {"system": "C57BL/6 mice", "test": "Mouse unilateral ureteral obstruction kidney fibrosis model", "assay_type": "in vivo", "conditions": "compared to untreated group", "method": "Female C57BL/6 mice (Harlan, 20-25 g) housed 4/cage will be given free access to food and water and allowed to acclimate for at least 7 days prior to test initiation. After the habituation phase, mice undergo unilateral ureteral obstruction (UUO) surgery or sham to left kidney. Briefly, a longitudinal, upper left incision is performed to expose the left kidney. The renal artery is located and 6/0 silk thread is passed between the artery and the ureter. The thread is looped around the ureter and knotted 3 times insuring full ligation of ureter. The kidney is returned to abdomen, the abdominal muscle is sutured and the skin is stapled closed. Mice are returned to their cages and monitored daily for the duration of the experiment. Test compound or vehicle is delivered po, ip or sc daily. The route and frequency of dosing is based on previously determined pharmacokinetic properties. All animals are sacrificed using inhaled isoflurane 4, 8 or 14 days after UUO surgery. Following sacrifice blood is drawn via cardiac puncture, the kidneys are harvested and one half of the kidney is frozen at −80° C. and the other half is fixed in 10% neutral buffered formalin for histological assessment of kidney fibrosis using light microscopy (10× magnification). Kidney tissue homogenates are analyzed for collagen levels using Sircol (Biocolor Ltd, UK). Fixed kidney tissue is also stained using hematoxylin and eosin (H&E) and trichrome and kidney fibrosis is determined by quantitative, computer-assisted densitometry of collagen in […] tissue sections using light microscopy and collagen content in kidney lysate. Plasma and kidney tissue lysates are also analyzed for concentrations of inflammatory, pro-fibrotic and tissue injury biomarkers including transforming growth factor β1, hyaluronic acid, tissue inhibitor of metalloproteinase-1, and plasminogen activator inhibitor-1, using commercially available ELISA. The resulting data are plotted using Graphpad prism and statistical differences between groups determined."}}}
{"smiles": "Cc1noc(-c2ccc(-c3ccc(C4(C(=O)O)CC4)cc3)cc2)c1NC(=O)O[C@H](C)c1ccccc1", "note": "[Compound 1, 1-{4′-[3-Methyl-4-((R)-1-phenyl-ethoxycarbonylamino)-isoxazol-5-yl]-biphenyl-4-yl}-cyclopropanecarboxylic acid]", "values": [{"measurement": "IC50", "setting": "Human LPA1", "value": "< 0.3", "unit": "µM"}, {"measurement": "BALF MMP-7", "setting": "C57B1/6 mice; 7-day bleomycin model", "value": "reduced"}, {"measurement": "BALF TGFβ1", "setting": "C57B1/6 mice; 7-day bleomycin model", "value": "reduced"}, {"measurement": "BALF collagen", "setting": "C57B1/6 mice; 7-day bleomycin model", "value": "reduced"}, {"measurement": "BALF hyaluronan", "setting": "C57B1/6 mice; 7-day bleomycin model", "value": "reduced"}, {"measurement": "BALF inflammatory cell influx", "setting": "C57B1/6 mice; 7-day bleomycin model", "value": "reduced"}, {"measurement": "BALF protein", "setting": "C57B1/6 mice; 7-day bleomycin model", "value": "reduced"}, {"measurement": "collagen concentration in BALF", "setting": "C57B1/6 mice; acute setting (3 day)", "value": "significantly reduced"}, {"measurement": "total protein concentration in BALF", "setting": "C57B1/6 mice; acute setting (3 day)", "value": "significantly reduced"}, {"measurement": "total lung collagen", "setting": "C57B1/6 mice; dosed prophylactically (day 0-day 14)", "value": "decreased"}, {"measurement": "total lung collagen", "setting": "C57B1/6 mice; dosed therapeutically (day 3-day 14)", "value": "decreased"}, {"measurement": "hyaluronic acid", "setting": "C57BL/6 mice", "value": "reduced"}, {"measurement": "plasminogen activator inhibitor-1", "setting": "C57BL/6 mice", "value": "reduced"}, {"measurement": "tissue inhibitor of metalloproteinase-1", "setting": "C57BL/6 mice", "value": "reduced"}, {"measurement": "total kidney collogen", "setting": "C57BL/6 mice", "value": "reduced"}, {"measurement": "transforming growth factor β1", "setting": "C57BL/6 mice", "value": "reduced"}, {"measurement": "collagen Type 1", "setting": "C57BL/6 mice; kidney", "value": "reduced"}]}
